# Values of other authors in patent publication US10543174B2, “Modified release tablet composition comprising mirabegron” (SYNTHON B.V., priority 2016, dated 2020).
# Legend:
# [1] = presence of food in the GI tract
smiles,measurement,setting,value
"Nc1nc(CC(=O)Nc2ccc(CCNC[C@H](O)c3ccccc3)cc2)cs1 [Mirabegron, (R)-2-(2-aminothiazol-4-yl)-4′-[2-[(2-hydroxy-2-phenylethyl)amino]ethyl]acetic acid anilide]",solubility,BCS,high solubility
same,solubility in water,"between neutral to acidic pH, EMA assessment report of Betmiga",soluble
same,"bioavailability, food effect",[1],affected by the presence of food
